For the test, the target named is Recombinant human cathepsin S (CatS) (Homo sapiens, UniProt P25774). Nature of the test: Recombinant human cathepsin S (CatS) inhibition assay, fluorogenic substrate Z-Valine-Valine-Arginine-AMC.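 Further: Baculovirus-expressed CatS in pH 5.0 sodium acetate buffer with DTT and NaCl, fluorescence read each minute over 20 min, inhibition derived from rate slope.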

Where two headings read alike, the source gives them in different places.

Sequence of Recombinant human cathepsin S (CatS) (P25774 115-331): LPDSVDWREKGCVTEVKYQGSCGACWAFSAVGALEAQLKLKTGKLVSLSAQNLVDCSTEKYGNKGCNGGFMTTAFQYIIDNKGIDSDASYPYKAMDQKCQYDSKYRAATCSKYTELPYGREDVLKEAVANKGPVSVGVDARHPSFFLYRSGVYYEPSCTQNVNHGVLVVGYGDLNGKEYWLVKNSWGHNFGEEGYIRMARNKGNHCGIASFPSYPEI

Consider `CS(=O)(=O)N1CCc2c(c(-c3ccc(Cl)c(C#Cc4ccc5c(c4)CCNCC5)c3)nn2CCCN2CCOCC2)C1` [Example 375, 7-({2-Chloro-5-[5-(methylsulfonyl)-1-(3-morpholin-4-ylpropyl)-4,5,6,7-tetrahydro-1H-pyrazolo[4,3-c]pyridin-3-yl]phenyl}ethynyl)-2,3,4,5-tetrahydro-1H-3-benzazepine], for which the IC50 (CatS IC50) was found to be 410 nM.

In the case of `CC(C)(C)OC(=O)N1Cc2cc(C#Cc3cc(-c4nn(CCCN5CCOCC5)c5c4CN(S(C)(=O)=O)CC5)ccc3Cl)ccc2C[C@H]1C(=O)O` [Example 464, (3S)-7-({2-Chloro-5-[5-(methylsulfonyl)-1-(3-morpholin-4-ylpropyl)-4,5,6,7-tetrahydro-1H-pyrazolo[4,3-c]pyridin-3-yl]phenyl}ethynyl)-2-{[(1,1-dimethylethyl)oxy]carbonyl}-1,2,3,4-tetrahydroisoquinoline-3-carboxylic acid], the IC50 (read-out: CatS IC50, Table 4, average of results obtained) was determined as 630 nM.

As for `CC(C)(C)OC(=O)N1CCc2ccc(C#Cc3cc(-c4nn(CCCN5CCC(C(N)=O)CC5)c5c4CN(S(C)(=O)=O)CC5)ccc3Cl)cc2C1` [Example 374, 1,1-Dimethylethyl 7-({5-[1-{3-[4-(aminocarbonyl)piperidin-1-yl]propyl}-5-(methylsulfonyl)-4,5,6,7-tetrahydro-1H-pyrazolo[4,3-c]pyridin-3-yl]-2-chlorophenyl}ethynyl)-3,4-dihydroisoquinoline-2(1H)-carboxylate], the IC50 (CatS IC50) came to 160 nM.

`COC(=O)C1COCCN1CCCn1nc(-c2ccc(Cl)c(C#Cc3ccc(CNCc4ccc(Cl)cc4)cc3)c2)c2c1CCN(S(C)(=O)=O)C2` (stereo not shown) [Example 418, Methyl 4-{3-[3-(4-chloro-3-{[4-({[(4-chlorophenyl)methyl]amino}methyl)phenyl]ethynyl}phenyl)-5-(methylsulfonyl)-4,5,6,7-tetrahydro-1H-pyrazolo[4,3-c]pyridin-1-yl]propyl}morpholine-3-carboxylate]: the IC50 came to 1030 nM.

In the case of `CS(=O)(=O)N1CCc2c(c(-c3ccc(Cl)c(C#Cc4ccc(Cl)c(Cl)c4)c3)nn2CCCN2CCOCC2)C1` [Example 13, 3-[4-Chloro-3-(3,4-dichloro-phenylethynyl)-phenyl]-5-methanesulfonyl-1-(3-morpholin-4-yl-propyl)-4,5,6,7-tetrahydro-1H-pyrazolo[4,3-c]pyridine], the IC50 (CatS IC50) was found to be 320 nM.

Regarding `CS(=O)(=O)N1CCc2c(c(-c3ccc(Cl)c(C#Cc4ccc(CNC(=O)c5ccccc5)cc4)c3)nn2CCCN2CCOCC2)C1` [Example 73, N-(4-{2-Chloro-5-[5-methanesulfonyl-1-(3-morpholin-4-yl-propyl)-4,5,6,7-tetrahydro-1H-pyrazolo[4,3-c]pyridin-3-yl]-phenylethynyl}-benzyl)-benzamide], the IC50 came to 350 nM.

On to `C[C@H]1COCCN1CCCn1nc(-c2ccc(Cl)c(CCc3ccc(CNCc4ccc(Cl)cc4)cc3)c2)c2c1CCN(C(N)=O)C2` [Example 244, 3-(4-Chloro-3-{2-[4-({[(4-chlorophenyl)methyl]amino}methyl)phenyl]ethyl}phenyl)-1-{3-[(3S)-3-methylmorpholin-4-yl]propyl}-1,4,6,7-tetrahydro-5H-pyrazolo[4,3-c]pyridine-5-carboxamide], for which the IC50 (CatS IC50) is 60 nM.

Turning to `CS(=O)(=O)N1CCc2c(c(-c3ccc(Cl)c(C#Cc4ccc(CNC5CCC5)cc4)c3)nn2CCCN2CCOCC2)C1` [Example 324, N-{[4-({2-Chloro-5-[5-(methylsulfonyl)-1-(3-morpholin-4-ylpropyl)-4,5,6,7-tetrahydro-1H-pyrazolo[4,3-c]pyridin-3-yl]phenyl}ethynyl)phenyl]methyl}cyclobutanamine], the IC50 (CatS IC50) was determined as 1340 nM.

For `CS(=O)(=O)N1CCc2c(c(-c3ccc(Cl)c(CCc4ccc5c(c4)CNCC5)c3)nn2CCCN2CCN(C3CC3)CC2)C1` [Example 229, 7-[2-(2-Chloro-5-{1-[3-(4-cyclopropylpiperazin-1-yl)propyl]-5-(methylsulfonyl)-4,5,6,7-tetrahydro-1H-pyrazolo[4,3-c]pyridin-3-yl}phenyl)ethyl]-1,2,3,4-tetrahydroisoquinoline], for the setting “CatS IC50”, the IC50 came to 90 nM.

For `Cc1cccc(CNCc2ccc(C#Cc3cc(-c4nn(CCCN5CCSCC5)c5c4CN(C(N)=O)CC5)ccc3Cl)cc2)c1` [Example 508, 3-(4-Chloro-3-{[4-({[(3-methylphenyl)methyl]amino}methyl)phenyl]ethynyl}phenyl)-1-(3-thiomorpholin-4-ylpropyl)-1,4,6,7-tetrahydro-5H-pyrazolo[4,3-c]pyridine-5-carboxamide], where the note is “CatS IC50”, the IC50 is 110 nM.

For the compound `NC(=O)C(=O)N1CCc2c(c(-c3ccc(Cl)c(C#Cc4ccc(CNCc5ccc(Cl)cc5)cc4)c3)nn2C[C@@H](O)CN2CCSCC2)C1` [Example 249, (S)-2-[3-(4-Chloro-3-{4-[(4-chloro-benzylamino)-methyl]-phenylethynyl}-phenyl)-1-(2-hydroxy-3-thiomorpholin-4-yl-propyl)-1,4,6,7-tetrahydro-pyrazolo[4,3-c]pyridin-5-yl]-2-oxo-acetamide], the IC50 was 50 nM.

Turning to `CS(=O)(=O)N1CCc2c(c(-c3ccc(Cl)c(CCCNS(=O)(=O)c4cccc(Cl)c4)c3)nn2CCCN2CCC(N3CCCC3=O)CC2)C1` [Example 90, 3-Chloro-N-{3-[2-chloro-5-(5-methanesulfonyl-1-{3-[4-(2-oxo-pyrrolidin-1-yl)-piperidin-1-yl]-propyl}-4,5,6,7-tetrahydro-1H-pyrazolo[4,3-c]pyridin-3-yl)-phenyl]-propyl}-benzenesulfonamide], the IC50 was 420 nM.

With `C[C@H]1COCCN1CCCn1nc(-c2ccc(Cl)c(C#Cc3ccc(Cl)c(CNCCO)c3)c2)c2c1CCN(C(=O)C(N)=O)C2` [Example 295, 2-(3-{4-Chloro-3-[(4-chloro-3-{[(2-hydroxyethyl)amino]methyl}phenyl)ethynyl]phenyl}-1-{3-[(3S)-3-methylmorpholin-4-yl]propyl}-1,4,6,7-tetrahydro-5H-pyrazolo[4,3-c]pyridin-5-yl)-2-oxoacetamide], the IC50 was 30 nM.

Regarding `COC(=O)CNCc1ccc(C#Cc2cc(-c3nn(CCCN4CCOCC4)c4c3CN(S(C)(=O)=O)CC4)ccc2Cl)cc1` [Example 347, Methyl N-{[4-({2-chloro-5-[5-(methylsulfonyl)-1-(3-morpholin-4-ylpropyl)-4,5,6,7-tetrahydro-1H-pyrazolo[4,3-c]pyridin-3-yl]phenyl}ethynyl)phenyl]methyl}glycinate], the IC50 (CatS IC50) was determined as 610 nM.

On to `CC(=O)N1CCC(C2CCN(C[C@H](O)Cn3nc(-c4ccc(Cl)c(C#Cc5ccc(Cl)cc5)c4)c4c3CCN(S(C)(=O)=O)C4)CC2)CC1` [Example 241, (2S)-1-(1′-Acetyl-4,4′-bipiperidin-1-yl)-3-[3-{4-chloro-3-[(4-chlorophenyl)ethynyl]phenyl}-5-(methylsulfonyl)-4,5,6,7-tetrahydro-1H-pyrazolo[4,3-c]pyridin-1-yl]propan-2-ol], for which the IC50 amounted to 30 nM.

`CS(=O)(=O)N1CCc2c(c(-c3ccc(Cl)c(C#Cc4ccc(Cl)c(C(=O)NCCN5CCOCC5)c4)c3)nn2CCCN2CCCCC2)C1` [Example 593, 2-Chloro-5-({2-chloro-5-[5-(methylsulfonyl)-1-(3-piperidin-1-ylpropyl)-4,5,6,7-tetrahydro-1H-pyrazolo[4,3-c]pyridin-3-yl]phenyl}ethynyl)-N-(2-morpholin-4-ylethyl)benzamide]: the half-inhibitory concentration (IC50) is 60 nM.

For the compound `NC(=O)C(=O)N1CCc2c(c(-c3ccc(Cl)c(C#Cc4ccc(Cl)c(C(=O)NCCCO)c4)c3)nn2CCCN2CCSCC2)C1` [Example 554, 5-[(5-{5-[Amino(oxo)acetyl]-1-(3-thiomorpholin-4-ylpropyl)-4,5,6,7-tetrahydro-1H-pyrazolo[4,3-c]pyridin-3-yl}-2-chlorophenyl)ethynyl]-2-chloro-N-(3-hydroxypropyl)benzamide], the IC50 amounted to 20 nM.

On to `CS(=O)(=O)N1CCc2c(c(-c3ccc(Cl)c(C#Cc4cccc(CNCCO)c4)c3)nn2CCCN2CCOCC2)C1` [Example 506, 2-({[3-({2-Chloro-5-[5-(methylsulfonyl)-1-(3-morpholin-4-ylpropyl)-4,5,6,7-tetrahydro-1H-pyrazolo[4,3-c]pyridin-3-yl]phenyl}ethynyl)phenyl]methyl}amino)ethanol], for which the IC50 (CatS IC50) turned out to be 520 nM.

For the compound `CS(=O)(=O)N1CCc2c(c(-c3ccc(Cl)c(C#Cc4cccc(CNCc5ccncc5)c4)c3)nn2CCCN2CCOCC2)C1` [Example 522, 1-[3-({2-Chloro-5-[5-(methylsulfonyl)-1-(3-morpholin-4-ylpropyl)-4,5,6,7-tetrahydro-1H-pyrazolo[4,3-c]pyridin-3-yl]phenyl}ethynyl)phenyl]-N-(pyridin-4-ylmethyl)methanamine], under “CatS IC50”, the IC50 amounted to 330 nM.

`COc1cccc(S(=O)(=O)NCCCc2cc(-c3nn(CCCN4CCC(N5CCCC5=O)CC4)c4c3CN(S(C)(=O)=O)CC4)ccc2Cl)c1` [Example 93, N-{3-[2-Chloro-5-(5-methanesulfonyl-1-{3-[4-(2-oxo-pyrrolidin-1-yl)-piperidin-1-yl]-propyl}-4,5,6,7-tetrahydro-1H-pyrazolo[4,3-c]pyridin-3-yl)-phenyl]-propyl}-3-methoxy-benzenesulfonamide]: the IC50 is 1050 nM.

Take `CS(=O)(=O)N1CCc2c(c(-c3ccc(Cl)c(C#Cc4ccc(CNC5CCCCC5)cc4)c3)nn2CCCN2CCOCC2)C1` [Example 326, N-{[4-({2-Chloro-5-[5-(methylsulfonyl)-1-(3-morpholin-4-ylpropyl)-4,5,6,7-tetrahydro-1H-pyrazolo[4,3-c]pyridin-3-yl]phenyl}ethynyl)phenyl]methyl}cyclohexanamine]: the IC50 (CatS IC50) was 1370 nM.

Consider `CS(=O)(=O)N1CCc2c(c(-c3ccc(Cl)c(C#Cc4ccc(CNCC(F)(F)F)cc4)c3)nn2CCCN2CCOCC2)C1` [Example 340, N-{[4-({2-Chloro-5-[5-(methylsulfonyl)-1-(3-morpholin-4-ylpropyl)-4,5,6,7-tetrahydro-1H-pyrazolo[4,3-c]pyridin-3-yl]phenyl}ethynyl)phenyl]methyl}-2,2,2-trifluoroethanamine], for which the concentration for half-maximal inhibition (IC50) (CatS IC50) amounted to 390 nM.

For the origin of these results see US20080200454A1, “CARBON-LINKED TETRAHYDRO-PYRAZOLO-PYRIDINE MODULATORS OF CATHEPSIN S” (priority 2007, published 2008).
